“Also recorded” adds a separate entry of the source.
What was measured:
TRPM8 [1] = molecular target: T1, TRPM8 (Homo sapiens, UniProt Q7Z2W7); test: Intracellular calcium (Ca2+ influx) in MVEC, Fluo-4AM microfluorometry; assay type: cell-based
T1 construct: Human MVEC express functional TRPM8; endogenous in cells; host or cells: human microvascular endothelial cells (normal MVEC and SSc-MVEC)
Experimental: FIG. 2: Pharmacological activation of TRPM8 in human microvascular endothelial cells. […] ATP was used as the positive control.
FIG. 3: Effects of menthol on intracellular calcium level in NL-MVECs and SSc-MVECs. Cells were loaded with 2 μM calcium indicator dye Fluo-4AM for 1 hour and treated with menthol with and without capsazepine for 10 minutes and then observed under microscope.
To evaluate the functional role of TRPM8 in MVECs, the intracellular calcium ([Ca^2+]) influx into MVEC by Ca^2+ was evaluated by microfluorometry studies in response to the addition of menthol or exposure to cold, which are known to activate TRPM8 (FIG. 2).
The effect of menthol is abrogated by the use of Capsazepine, a TRPM8 receptor inhibitor. These findings indicate that TRPM8 mediates functional effects in MVEC that are mediated by calcium influx, which is antagonized by the use of Capsazepine.

[2] = Storage stability of capsazepine; assay type: physicochemical; conditions: long term storage recommended at −20° C.
TRPM8 [3] = molecular target: T1, TRPM8; test: MVEC gene expression (ET1, NOS3, PTGIS mRNA) by qPCR after TRPM8 activation; assay type: cell-based
Experimental: FIGS. 4A-4C: Effects of cold exposure on ET1 (FIG. 4A), NOS3 (FIG. 4B), and PTGIS (FIG. 4C) mRNA expression. Normal MVECs were exposed to 18° C. temperature for 1 hr. The mRNA expression levels were measured by qPCR.
FIGS. 5A-5C: Effects of Menthol on ET1 (FIG. 5A), NOS3 (FIG. 5B), and PTGIS (FIG. 5C) mRNA expression. Normal endothelial cells were treated with menthol (MT) at 20 μM, 100 μM, and 500 μM with and without capsazepine (CapZ) for 24 hours. The mRNA expression levels were measured by qPCR.
The effect of exposure of normal MVEC to […] on MVEC gene expression was evaluated. Specifically, gene expression levels of NOS3, PTGIS, and ET1 in MVEC were evaluated in response to TRPM8 activation by cold exposure (FIGS. 4A-4C) and menthol (FIGS. 5A-5C) with and without Capsazepine, which is one of the TRPM8 receptor inhibitors.
Thus, the use of TRPM8 antagonists can be an effective strategy for treatment Raynaud's phenomenon in SSc patients.

[4] = tested on: patients with Raynaud's phenomenon; test: Cold challenge test with infrared thermography of digital blood flow after topical application; assay type: in vivo, human
From the text: A FLIR thermography system (Wilsonville, Oreg.) was used to evaluate blood flow in the digits in response to a cold challenge test in addition to PPG. The advantage of combining the two modalities is that both (i) a dynamic assessment of blood flow in the hands as reflected by changes in temperature in response to cold challenge tests, as well as (ii) the ability to obtain single point measurements, can be achieved.
FIGS. 8A-8B show the local application of econazole to the left index finger, and clotrimazole to the ring finger, for 15 minutes before cold exposure (FIG. 8A). […] Note the red color that depicts higher temperature of skin on the left index finger in the right panel of FIG. 8B.
Gel formulations of 3% econazole and 3% clotrimazole were prepared, then applied to the index and ring fingers (respectively) of the left hand of patients with Raynaud's phenomenon. The topical application was left for 15 minutes on the fingers, before inducing Raynaud's phenomenon by a cold challenge test. The digital blood flow was analyzed by infrared thermography.

[5] = activation of TRPM8 in MVEC by cold temperature or by menthol, qPCR

T1 sequence (Q7Z2W7 whole entry): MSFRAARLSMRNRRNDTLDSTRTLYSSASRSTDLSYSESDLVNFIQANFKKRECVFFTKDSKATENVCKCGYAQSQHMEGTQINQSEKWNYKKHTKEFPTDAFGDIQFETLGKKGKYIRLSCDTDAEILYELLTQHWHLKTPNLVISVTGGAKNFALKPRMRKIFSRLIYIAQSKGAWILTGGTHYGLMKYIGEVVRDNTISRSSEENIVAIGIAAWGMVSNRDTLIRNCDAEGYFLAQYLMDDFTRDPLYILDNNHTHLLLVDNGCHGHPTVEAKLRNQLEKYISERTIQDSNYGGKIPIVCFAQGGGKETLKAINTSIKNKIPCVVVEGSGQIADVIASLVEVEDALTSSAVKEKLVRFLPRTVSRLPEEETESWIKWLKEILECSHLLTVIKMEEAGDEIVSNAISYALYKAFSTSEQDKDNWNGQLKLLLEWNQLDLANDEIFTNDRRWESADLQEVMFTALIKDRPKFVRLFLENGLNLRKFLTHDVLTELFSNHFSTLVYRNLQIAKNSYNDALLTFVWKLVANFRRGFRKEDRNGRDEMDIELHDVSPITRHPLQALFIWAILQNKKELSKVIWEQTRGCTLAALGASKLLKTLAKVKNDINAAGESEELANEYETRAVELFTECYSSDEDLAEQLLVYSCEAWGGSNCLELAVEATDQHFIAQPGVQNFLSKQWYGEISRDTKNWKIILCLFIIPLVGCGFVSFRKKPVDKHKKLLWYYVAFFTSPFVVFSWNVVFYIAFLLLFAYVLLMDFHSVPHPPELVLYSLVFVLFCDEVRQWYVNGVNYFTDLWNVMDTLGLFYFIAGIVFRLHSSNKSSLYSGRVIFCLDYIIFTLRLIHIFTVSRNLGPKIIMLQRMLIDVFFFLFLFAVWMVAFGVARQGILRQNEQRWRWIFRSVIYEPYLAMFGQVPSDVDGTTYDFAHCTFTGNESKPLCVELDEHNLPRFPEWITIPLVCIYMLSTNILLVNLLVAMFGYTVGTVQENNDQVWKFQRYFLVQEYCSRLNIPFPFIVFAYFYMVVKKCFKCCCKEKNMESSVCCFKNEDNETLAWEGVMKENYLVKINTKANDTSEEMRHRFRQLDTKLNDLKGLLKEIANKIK

Oc1cc2c(cc1O)CN(C(=S)NCCc1ccc(Cl)cc1)CCC2 [capsazepine]
effect on menthol-induced intracellular calcium increase (TRPM8 [1]; menthol with capsazepine, 10 minutes, NL-MVECs and SSc-MVECs): abrogated
stability at room temperature [2]: not stable at room temperature
effect on cold/menthol-induced changes of ET1, NOS3 and PTGIS expression (TRPM8 [3]; MVEC, addition of TRPM8 antagonist): normalization of gene expression levels; also recorded: reversed; also recorded: near normalization

Clc1ccc(COC(Cn2ccnc2)c2ccc(Cl)cc2Cl)cc1 (centres unmarked) [econazole]
cold induced decrease in blood flow to the fingers ([4]; 3% gel on left index finger, 15 minutes before cold challenge, infrared thermography): prevented the cold induced decrease in blood flow
subjective feeling of finger coldness by patient report ([4]; after topical application and cold challenge): less finger coldness
finger temperature in thermal image after cold exposure ([4]; local application to left index finger for 15 minutes before cold exposure): warmer than the other fingers

CC1CCC(C(C)C)C(O)C1 (centres unmarked) [menthol]
Ca2+ influx in MVEC (TRPM8 [1]; 500 μM/L menthol, human microvascular endothelial cells): increase in Ca^2+ influx
intracellular calcium levels (TRPM8 [1]; SSc MVEC and healthy MVEC, Fluo-4AM, 10 minutes): increases intracellular calcium levels
NOS3 expression reduction (TRPM8 [3]; [5]): 62%
PTGIS expression reduction (TRPM8 [3]; [5]): 61%
increase in expression of ET1 (TRPM8 [3]; [5]): 2.4 folds

Source: patent US11612560B2, “Treatment of Raynaud's phenomenon by inhibition of transient receptor potential melastatin-8 (TRPM-8)” (The University of Toledo, priority 2015, dated 2023)
